# Experimental data from patent US12559461B2, “Antibiotic adjuvant compounds” (UNIVERSITY OF NOTRE DAME DU LAC, priority 2020, dated 2026).
# “Also recorded” adds a separate entry of the source. Like-named read-outs stand apart in the source and are kept apart here.
# Legend:
# AB5075 [1] = details: previously reported, cited from earlier work
# [2] = system: A. baumannii isolates (23 strains); test: Minimum inhibitory concentration against AB isolates; assay type: cell-based, Acinetobacter baumannii; details: CLR alone
# Method: (§1) Broth microdilution method for MIC determination. Day cultures (6 h) of each bacterial strain in cation adjusted Mueller Hinton II broth (CAMHB, Fisher Scientific U.S.) were subcultured to 5×10^5 CFU/mL in CAMHB. Aliquots (1 mL) were placed in culture tubes and compound was added from 10 mM stock samples in DMSO, such that compound concentration equaled highest concentration tested (200 μM). Samples were then aliquoted (200 μL) into the first wells of a 96-well plate, with all remaining wells being filled with 100 μL of initial bacterial subculture. Row one wells were mixed five times, before 100 μL was transferred to row two. Row two was then mixed five times, and 100 μL was transferred to row three. This process was repeated until the final row had been mixed; this served to serially dilute the compound. Plates were then covered with GLAD Press n'Seal and incubated under stationary conditions at 37° C. for 16 h. MIC values were then recorded as the lowest concentration at which no bacterial growth was observed.
# AB5075 [3] = test: Evolution of clarithromycin resistance by serial passage; assay type: cell-based, Acinetobacter baumannii
# Method: A. baumannii 5075 was grown in CAMHB overnight then subcultured (5×10^5 CFU/mL) in 6 mL of fresh CAMHB. Adjuvant was added into this 6-mL subculture at either 10 or 30 μM concentrations. […] This was serially repeated for a period of nine days.
# AB5075 [4] = test: Broth microdilution clarithromycin (CLR) potentiation and dose-response of adjuvant; assay type: cell-based, Acinetobacter baumannii
# Method: (§2) Bacterial Strains and Antimicrobial Agents. Acinetobacter baumannii clinical isolate 5075 was obtained from Dr. Colin Manoil at the University of Washington. Colonies were grown on lysogeny broth (LB) agar. Cation-adjusted Mueller-Hinton Broth (CAMHB) (catalog number 212322) were purchased from BD Diagnostics. LB broth was purchased from Fisher Scientific (catalog number BP9722-2). […] Colistin sulfate salt (catalog number C4461) was purchased from Sigma Aldrich. All assays were completed in duplicate and repeated at least two separate times. All compounds were dissolved as their HCl salts in molecular biology grade DMSO as 10 or 100 mM stock solutions and stored at −20° C. Colistin was dissolved in sterile water while clarithromycin was dissolved in molecular biology grade DMSO.
# (§3) Broth microdilution method for antibiotic potentiation. Day cultures (6 h) of bacteria in CAMHB were subcultured to 5×10^5 CFU/mL in CAMHB. Aliquots (4 mL) were placed in culture tubes and dosed with compound from 10 mM stock samples to give the desired concentration of the compound to be tested against the particular bacterial strain; this insured non-toxic DMSO concentrations ≤0.3% in each well. 1 mL of the resulting solution was placed in a separate culture and dosed with antibiotic at the highest concentration to be tested. Bacteria treated with antibiotic alone served as the control. Row one of a 96-well plate was filled with 200 μL of the antibiotic/2-AI solution, and rows 2-12 were filled with 100 μL each of the remaining 4 mL of bacterial subculture containing adjuvant at the desired concentration, except for the control lane which contained only bacterial subculture. Row one was then mixed five times, and 100 μL was transferred to row two, which was then mixed five times before being transferred to row three. This process was repeated until all rows had been mixed, except for row twelve which would have only 2-AI to serve as a control to monitor potential toxicity. The 96-well plate was then covered in Glad Press n'Seal and incubated under stationary conditions at 37° C. for 16 h. MIC values were determined as the lowest concentration at which no bacterial growth was observed, and fold reductions were determined by comparison to antibiotic control lane.
# (§4) Dose-response of Adjuvant Assay. The procedure for ‘broth microdilution method for antibiotic potentiation’ was followed using 4 mL aliquots of adjuvant at various concentrations: 0, 5, 7.5, 10, 15, 20, 25, and 30 μM.
# AB5075 [5] = details: previously reported, cited from earlier work; remark: listed apart in the source
# AB5075 [6] = details: compound alone, previously reported; cited from earlier work
# AB5075 [7] = test: Broth microdilution MIC of compound alone (standalone toxicity); assay type: cell-based, Acinetobacter baumannii
# Method: as §2, §1
# [8] = system: E. coli biofilm formation; details: Bioorg Med Chem Lett 2010; cited from earlier work
# AB5075 [9] = test: Colistin MIC in presence of adjuvant (broth microdilution antibiotic potentiation); assay type: cell-based, Acinetobacter baumannii
# Method: as §2, §3, §4
# [10] = passaging with CLR and 30 μM adjuvant 1, day 2 and day 9, adjuvant 1 at 30 μM
molecule,measurement,setting,value
"CC[C@H]1OC(=O)[C@H](C)[C@@H](O[C@H]2C[C@@](C)(OC)[C@@H](O)[C@H](C)O2)[C@H](C)[C@@H](O[C@@H]2O[C@H](C)C[C@H](N(C)C)[C@H]2O)[C@](C)(OC)C[C@@H](C)C(=O)[C@H](C)[C@@H](O)[C@]1(C)O [CLR, clarithromycin, reference compound]",CLR MIC,AB5075 [1]; CLR alone,32 µg/mL
same,CLR MIC,[2]; A. baumannii strain 3560,32 µg/mL
same,CLR MIC,[2]; A. baumannii strain 3785,64 µg/mL
same,CLR MIC,[2]; A. baumannii strain 3806,16 µg/mL
same,CLR MIC,[2]; A. baumannii strain 3927,32 µg/mL
same,CLR MIC,[2]; A. baumannii strain 4025,64 µg/mL
same,CLR MIC,[2]; A. baumannii strain 4026,64 µg/mL
same,CLR MIC,[2]; A. baumannii strain 4027,64 µg/mL
same,CLR MIC,[2]; A. baumannii strain 4052,32 µg/mL
same,CLR MIC,[2]; A. baumannii strain 4269,32 µg/mL
same,CLR MIC,[2]; A. baumannii strain 4448,32 µg/mL
same,CLR MIC,[2]; A. baumannii strain 4456,32 µg/mL
same,CLR MIC,[2]; A. baumannii strain 4490,32 µg/mL
same,CLR MIC,[2]; A. baumannii strain 4498,64 µg/mL
same,CLR MIC,[2]; A. baumannii strain 4795,32 µg/mL
same,CLR MIC,[2]; A. baumannii strain 4857,64 µg/mL
same,CLR MIC,[2]; A. baumannii strain 4878,32 µg/mL
same,CLR MIC,[2]; A. baumannii strain 4957,32 µg/mL
same,CLR MIC,[2]; A. baumannii strain 4991,32 µg/mL
same,CLR MIC,[2]; A. baumannii strain 5001,32 µg/mL
same,CLR MIC,[2]; A. baumannii strain 5197,64 µg/mL
same,CLR MIC,[2]; A. baumannii strain 5256,32 µg/mL
same,CLR MIC,[2]; A. baumannii strain 5711,64 µg/mL
same,CLR MIC,[2]; A. baumannii strain 8967,16 µg/mL
same,CLR MIC,"AB5075 [3]; CLR-alone exposure of AB5075, day 0",32 µg/mL
same,CLR MIC,"AB5075 [3]; CLR-alone exposure of AB5075, day 4",128 µg/mL
same,CLR MIC,"AB5075 [3]; CLR-alone exposure of AB5075, day 6",512 µg/mL
same,CLR MIC,"AB5075 [3]; CLR-resistant AB5075 mutant from CLR-alone passaging, no adjuvant",512 µg/mL
same,CLR MIC,"AB5075 [3]; passaging with CLR and 30 μM adjuvant 1, day 2 and day 9, without adjuvant",32 µg/mL
same,CLR MIC,"AB5075 [3]; serial passage with CLR + adjuvant 1 (30 μM), day 2, compound 1 tested at 0 μM",16 µg/mL
same,CLR MIC,"AB5075 [3]; serial passage with CLR + adjuvant 1 (30 μM), day 4, compound 1 tested at 0 μM",32 µg/mL
same,CLR MIC,"AB5075 [3]; serial passage with CLR + adjuvant 1 (30 μM), day 6, compound 1 tested at 0 μM",32 µg/mL
same,CLR MIC,"AB5075 [3]; serial passage with CLR + adjuvant 1 (30 μM), day 8, compound 1 tested at 0 μM",32 µg/mL
same,CLR MIC,"AB5075 [3]; serial passage with CLR + adjuvant 1 (30 μM), day 10, compound 1 tested at 0 μM",32 µg/mL
same,CLR MIC,"AB5075 [4]; CLR alone, no adjuvant",32 µg/mL
"Cl.Nc1nc(-c2ccc(NC(=O)c3cc(Cl)cc(Cl)c3)cc2)c[nH]1 [Compound 1, N-(4-(2-amino-1H-imidazol-4-yl)phenyl)-3,5-dichlorobenzamide hydrochloride]",Fold Reduction of CLR MIC,AB5075 [1]; compound at 10 μM,16 fold
same,Colistin MIC,AB5075 [5]; compound at 30 μM,4 µg/mL
same,suppression of evolution of CLR resistance,"AB5075 [3]; AB5075 passaged with CLR and 30 μM adjuvant, nine-day course, hydrochloride",suppressed the increase in macrolide resistance; also recorded: suppresses the acquisition of CLR resistance
same,CLR MIC,"AB5075 [3]; CLR-resistant AB5075 mutant from CLR-alone passaging, compound at 30 μM",2 µg/mL
same,CLR MIC,AB5075 [3]; [10],0.25 µg/mL
same,Fold Reduction of CLR MIC,AB5075 [3]; [10],128 fold
same,CLR MIC,"AB5075 [3]; serial passage with CLR + adjuvant 1 (30 μM), day 2, compound 1 tested at 30 μM",0.25 µg/mL
same,CLR MIC,"AB5075 [3]; serial passage with CLR + adjuvant 1 (30 μM), day 4, compound 1 tested at 30 μM",0.25 µg/mL
same,CLR MIC,"AB5075 [3]; serial passage with CLR + adjuvant 1 (30 μM), day 6, compound 1 tested at 30 μM",0.25 µg/mL
same,CLR MIC,"AB5075 [3]; serial passage with CLR + adjuvant 1 (30 μM), day 8, compound 1 tested at 30 μM",≤0.5 µg/mL
same,CLR MIC,"AB5075 [3]; serial passage with CLR + adjuvant 1 (30 μM), day 10, compound 1 tested at 30 μM",0.25 µg/mL
Nc1nc(-c2ccc(NC(=O)c3cc(Br)cc(Br)c3)cc2)c[nH]1 [Compound 2],Fold Reduction of CLR MIC,AB5075 [1]; compound at 10 μM,16 fold
same,Fold Reduction of CLR MIC,AB5075 [1]; compound at 30 μM,128 fold
same,Colistin MIC,AB5075 [5]; compound at 30 μM,4 µg/mL
same,MIC,AB5075 [6],100 µM
Nc1nc(-c2ccc(NC(=O)c3cc(F)cc(F)c3)cc2)c[nH]1 [Compound 4k],MIC,AB5075 [7]; Acinetobacter baumannii,> 200 µM
same,CLR MIC,AB5075 [4]; compound tested at 30 μM,4 µg/mL
same,Fold Reduction of CLR MIC,AB5075 [4]; compound tested at 30 μM,eight-fold
same,"adjuvant activity (CLR potentiation), rank by amide linker position",AB5075 [4]; dosed at 30 μM,highest adjuvant activity
same,biofilm inhibition activity,[8],lead biofilm inhibitor
Cl.Nc1nc(-c2ccc(NC(=O)c3ccc(Cl)c(Cl)c3)cc2)c[nH]1 [Compound 4r],Colistin MIC,AB5075 [9]; compound tested at 30 μM,4 µg/mL
same,MIC,AB5075 [7],100 µM
same,CLR MIC,AB5075 [4]; compound tested at 7.5 μM,8 µg/mL
same,CLR MIC,AB5075 [4]; compound tested at 10 μM,4 µg/mL
same,Fold Reduction of CLR MIC,AB5075 [4]; compound tested at 10 μM,eight
same,CLR MIC,AB5075 [4]; compound tested at 20 μM,0.5 µg/mL
same,Fold Reduction of CLR MIC,AB5075 [4]; compound tested at 30 μM,64 fold
Cl.Nc1nc(-c2ccc(NC(=O)c3c(Cl)cc(Cl)cc3Cl)cc2)c[nH]1 [Compound 4s],Colistin MIC,AB5075 [9]; compound tested at 30 μM,0.25 µg/mL
same,MIC,AB5075 [7],100 µM
same,CLR MIC,AB5075 [4]; compound tested at 10 μM,32 µg/mL
same,CLR MIC,AB5075 [4]; compound tested at 20 μM,16 µg/mL
same,CLR MIC,AB5075 [4]; compound tested at 25 μM,8 µg/mL
Cl.Nc1nc(-c2ccc(NC(=O)c3cc(F)c(F)c(F)c3)cc2)c[nH]1 [Compound 4v],Colistin MIC,AB5075 [9]; compound tested at 30 μM,1 µg/mL
same,MIC,AB5075 [7],100 µM
same,CLR MIC,AB5075 [4]; compound tested at 10 μM,32 µg/mL
same,CLR MIC,AB5075 [4]; compound tested at 20 μM,8 µg/mL
same,CLR MIC,AB5075 [4]; compound tested at 30 μM,1 µg/mL
Colistin sulfate salt [reference compound],Colistin MIC,"AB5075 [9]; colistin alone, no adjuvant",0.5 µg/mL
same,Colistin MIC,AB5075 [5]; colistin alone,1 µg/mL
